These results are taken from US20100160267A1, “Treatment of Inflammatory Bowel Disease With 2-Methylene-19-Nor-Vitamin D Compounds” (WISCONSIN ALUMNI RESEARCH FOUNDATION, priority 2003, published 2010).

One data set relates to IL-10 KO mice. Kind of data set: Colitis development in vitamin D deficient IL-10 KO mice, compound given in the diet. Type of data set: in vivo, mice (C57BL/6). Conditions: 2-MP 720 ng/d; for Development of colitis symptoms (in words): IL-10 KO mice, 2-MD 0.12 ng/d in the diet; for Incidence (# with colitis/n): incidence defined as SI/BW % of greater than 6.5, vitamin D deficient for 5 weeks, then in the diet for the remainder of 9-10 weeks: 1,25(OH)2D3 5 ng/d; for Incidence (# with colitis/n) / SI/BW (small intestine weight / body weight, all mice in the group): 2-MD 0.12 ng/d; for SI/BW (small intestine weight / body weight, all mice in the group): wildtype C57BL/6 values are 5-6, in the diet: 1,25(OH)2D3 5 ng/d. An excerpt:
Recently a number of transgenic animals have been developed in which IBD symptoms occur spontaneously. One of the best animal models for Crohn's disease is the IL-10 knockout (KO) mouse (Kuhn et al. 1993, Mac Donald 1994). In conventional animal facilities, the IL-10 KO mice develop enterocolitis within 5-8 weeks of life (Kuhn et al. 1993). Approximately 30% of the IL-10 KO mice die following the development of severe anemia and weight loss (Kuhn et al. 1993). […] In addition mice raised in specific pathogen free facilities develop milder disease which doesn't result in the death of the mice (Kuhn et al. 1993). There are limitations involved in studying IL-10 KO mice as a model of IBD. If vitamin D is a regulator of IL-10 production then the results in this animal model may not represent […] what may happen in a “normal” immune response. However patients with Crohn's disease show similar symptoms, have depressed IL-10 production, and have been successfully treated with IL-10 (Narula et al. 1998).
(§1) Vitamin D deficient IL-10 KO mice were randomly distributed into one of 4 groups. Controls remained vitamin D deficient for the entire 9-10 weeks of the experiment. Mice treated with 1α,25-dihydroxyvitamin D3 (hereinafter “1,25(OH)2D3”) were vitamin D deficient for 5 weeks and then received 5 ng/d in the diet for the remainder of the experiment. 2-MP treated mice were vitamin D deficient for 5 weeks and then received 720 ng/d in the diet for the remainder of the experiment. 2-MD treated mice were vitamin D deficient for 5 weeks and then received 0.12 ng/d in the diet for the remainder of the experiment. VDR KO IL10KO mice were bred with VDR KO mice and the double IL10/VDR KO mice are compared here.

Data set [1] is described as follows: Serum calcium and body weight of treated vitamin D deficient IL-10 KO mice. Type of data set: in vivo, mice (C57BL/6). As to conditions: in the diet: 1,25(OH)2D3 5 ng/d, 2-MP 720 ng/d, 2-MD 0.12 ng/d. As for the experimental part:
as §1

A further data set deals with IL-10 knock-out mice. As to conditions: cited from earlier work.

Molecules are shown by their SMILES. Marks after values point to notes of the source that are not given here.

In the case of `C=C1[C@H](O)CC(=C/C=C2\CCC[C@]3(C)C(C(C)C)CC[C@@]23C)C[C@H]1O` (stereo partly drawn) [2-MP, 1α-hydroxy-2-methylene-19-nor-homopregnacalciferol], in the data set with IL-10 KO mice, the “Development of colitis symptoms (in words)” value was “effective at inhibiting and/or preventing the development of colitis symptoms”; the “Incidence (# with colitis/n)” value is 0/8^c; the “SI/BW (small intestine weight / body weight, all mice in the group)” value is recorded as 5.4 ± 0.3^b %. Besides, in data set [1], the “BW (body weight)” value is given as 20.2 ± 0.5^c g.

As for `C=C1/C(=C\C=C2/CCC[C@]3(C)[C@@H]([C@H](C)CCCC(C)(C)O)CC[C@@H]23)C[C@@H](O)C[C@@H]1O` [1,25(OH)2D3, 1α,25-dihydroxyvitamin D3, reference compound], in the data set with IL-10 KO mice, the “Incidence (# with colitis/n)” value was 1/28^c and the “SI/BW (small intestine weight / body weight, all mice in the group)” value is on record as 5.8 ± 0.3^b %. In addition, in data set [1], the “BW (body weight)” value is 20.8 ± 0.5^c g and the “Serum Calcium” value is recorded as 8.9 ± 0.3^a mg %. The “Prevention of IBD (in words)” value in the data set with IL-10 knock-out mice was “can prevent IBD”.

On to `C=C1[C@H](O)CC(=C/C=C2\CCC[C@]3(C)C([C@@H](C)CCCC(C)(C)O)CC[C@@]23C)C[C@H]1O` (stereo partly drawn) [2-MD, 2-methylene-19-nor-20(S)-1α,25-dihydroxyvitamin D3], for which, in the data set with IL-10 KO mice, the “Development of colitis symptoms (in words)” value is “effective at inhibiting and/or preventing the development of colitis symptoms”; the “Incidence (# with colitis/n)” value was 0/9^c; the “SI/BW (small intestine weight / body weight, all mice in the group)” value is listed as 5.3 ± 0.1^b %. Moreover, in data set [1], the “BW (body weight)” value was 20.8 ± 1.0^c g.
